Source: paper PMC11702208 (RSC Advances, 2025)

Experiments:
MCF7 = test: NCI cytotoxicity screen; format: cell-based, human; settings: Homo sapiens, MCF7
NCI-H322M = test: NCI cytotoxicity screen; format: cell-based, human; settings: Homo sapiens
DU-145 = test: NCI cytotoxicity screen; format: cell-based, human; settings: Homo sapiens
[1] = test system: Breast cancer subpanel tumor cell lines; test: NCI cytotoxicity screen, subpanel; format: cell-based, human
OVCAR-5 = test: NCI cytotoxicity screen; format: cell-based, human; settings: Homo sapiens, OVCAR-5
RPMI-8226 = test: NCI cytotoxicity screen; format: cell-based, human; settings: Homo sapiens
T-47D = test: NCI cytotoxicity screen; format: cell-based, human; settings: Homo sapiens, T47D
SF-268 = test: NCI cytotoxicity screen; format: cell-based, human; settings: Homo sapiens
RXF 393 = test: NCI cytotoxicity screen; format: cell-based, human; settings: Homo sapiens
HL-60(TB) = test: cells; settings: Homo sapiens
SNB-75 = test: NCI cytotoxicity screen; format: cell-based, human; settings: Homo sapiens
HT29 = test: NCI cytotoxicity screen; format: cell-based, human; settings: Homo sapiens, HT-29
NCI-H460 = test: NCI cytotoxicity screen; format: cell-based, human; settings: Homo sapiens
CAKI-1 = test: NCI cytotoxicity screen; format: cell-based, human; settings: Homo sapiens
U251 = test: NCI cytotoxicity screen; format: cell-based, human; settings: Homo sapiens, U-251
786-0 = test: NCI cytotoxicity screen; format: cell-based, human; settings: Homo sapiens
NCI-H522 = test: NCI cytotoxicity screen; format: cell-based, human; settings: Homo sapiens
ACHN = test: NCI cytotoxicity screen; format: cell-based, human; settings: Homo sapiens
SNB-19 = test: NCI cytotoxicity screen; format: cell-based, human; settings: Homo sapiens
A549/ATCC = test: NCI cytotoxicity screen; format: cell-based, human; settings: Homo sapiens, A549
[2] = test system: NSC lung cancer subpanel tumor cell lines; test: NCI cytotoxicity screen, subpanel; format: cell-based, human
K-562 = test: cells; settings: Homo sapiens, K562
[3] = test system: Leukemia subpanel tumor cell lines; test: NCI cytotoxicity screen, subpanel; format: cell-based, human
[4] = test system: Melanoma subpanel tumor cell lines; test: NCI cytotoxicity screen, subpanel; format: cell-based, human
NCI-H23 = test: NCI cytotoxicity screen; format: cell-based, human; settings: Homo sapiens
UO-31 = test: NCI cytotoxicity screen; format: cell-based, human; settings: Homo sapiens
KM12 = test: NCI cytotoxicity screen; format: cell-based, human; settings: Homo sapiens, KM12
HCT-116 = test: NCI cytotoxicity screen; format: cell-based, human; settings: Homo sapiens
SF-295 = test: NCI cytotoxicity screen; format: cell-based, human; settings: Homo sapiens
MDA-MB-231/ATCC = test: NCI cytotoxicity screen; format: cell-based, human; settings: Homo sapiens, MDA-MB-231
LOX IMVI = test: NCI cytotoxicity screen; format: cell-based, human; settings: Homo sapiens
[5] = test system: Prostate cancer subpanel tumor cell lines; test: NCI cytotoxicity screen, subpanel; format: cell-based, human
HOP-92 = test: NCI cytotoxicity screen; format: cell-based, human; settings: Homo sapiens
SR = test: NCI cytotoxicity screen; format: cell-based, human; settings: Homo sapiens
M14 = test: NCI cytotoxicity screen; format: cell-based, human; settings: Homo sapiens
HS 578T = test: NCI cytotoxicity screen; format: cell-based, human; settings: Homo sapiens, Hs-578T
OVCAR-4 = test: NCI cytotoxicity screen; format: cell-based, human; settings: Homo sapiens, OVCAR-4
MALME-3M = test: NCI cytotoxicity screen; format: cell-based, human; settings: Homo sapiens, Malme-3M
SN12C = test: NCI cytotoxicity screen; format: cell-based, human; settings: Homo sapiens, SN12C
UACC-62 = test: NCI cytotoxicity screen; format: cell-based, human; settings: Homo sapiens
SF-539 = test: NCI cytotoxicity screen; format: cell-based, human; settings: Homo sapiens
SK-OV-3 = test: NCI cytotoxicity screen; format: cell-based, human; settings: Homo sapiens
SK-MEL-5 = test: NCI cytotoxicity screen; format: cell-based, human; settings: Homo sapiens
SW-620 = test: NCI cytotoxicity screen; format: cell-based, human; settings: Homo sapiens
MOLT-4 = test: NCI cytotoxicity screen; format: cell-based, human; settings: Homo sapiens
[6] = subpanel value, NSC lung cancer

`C#Cc1cccc(Nc2ncnc3cc(OCCOC)c(OCCOC)cc23)c1` [Erlotinib, reference compound] was tested, and the GI50 (MCF7) was 100 µM, the GI50 (NCI-H322M) was 50 nM and the GI50 (DU-145) was 1580 nM. It also gave a CC50 ([1]; Homo sapiens, read-out: LC50) of 96.4 µM, a GI50 ([1]; Homo sapiens, subpanel value, Breast cancer) of 24.7 µM and a GI50 ([1]; subpanel value, Breast cancer) of 24.7 µM. For the same molecule, the TGI ([1]; subpanel value, Breast cancer) was 70.53 µM, the GI50 (OVCAR-5) was 19.9 µM and the GI50 (RPMI-8226) was 5.01 µM. It also gave a GI50 (T-47D) of 3.16 µM, a GI50 (SF-268) of 19.9 µM and a GI50 (RXF 393) of 6.3 µM. The GI50 (HL-60(TB)) was 5.01 µM, the GI50 (SNB-75) was 12.6 µM and the GI50 (HT29) was 50.1 µM. The GI50 (NCI-H460) was 5.01 µM, the GI50 (CAKI-1) was 100 nM and the GI50 (U251) was 19.9 µM. It also gave a GI50 (786-0) of 5.01 µM, a GI50 (NCI-H522) of 1000 nM and a GI50 (ACHN) of 150 nM. It also gave a GI50 (SNB-19) of 3.98 µM, a GI50 (A549/ATCC) of 7.94 µM and a CC50 ([2]; Homo sapiens, read-out: LC50) of 97.7 µM. For the same molecule, the GI50 ([2]; Homo sapiens, subpanel value, NSC lung cancer) was 13.1 µM, the GI50 [2, 6] was 13.1 µM and the TGI [2, 6] was 73.76 µM. For the same molecule, the GI50 (K-562) was 15.5 µM, the CC50 ([3]; Homo sapiens, read-out: LC50) was greater than 100 µM and the GI50 ([3]; Homo sapiens, subpanel value, Leukemia) was 27.9 µM. For the same molecule, the GI50 ([3]; subpanel value, Leukemia) was 27.9 µM, the TGI ([3]; subpanel value, Leukemia) was 96.57 µM and the CC50 ([4]; Homo sapiens, read-out: LC50) was 93.3 µM. The GI50 ([4]; Homo sapiens, subpanel value, Melanoma) was 23.7 µM, the GI50 ([4]; subpanel value, Melanoma) was 23.7 µM and the TGI ([4]; subpanel value, Melanoma) was 77.89 µM. For the same molecule, the GI50 (NCI-H23) was 19.9 µM, the GI50 (UO-31) was 1990 nM and the GI50 (KM12) was 63.1 µM. It also gave a GI50 (HCT-116) of 5.01 µM, a GI50 (SF-295) of 15.8 µM and a GI50 (MDA-MB-231/ATCC) of 1990 nM. The GI50 (LOX IMVI) was 5.01 µM, the CC50 ([5]; Homo sapiens, read-out: LC50) was greater than 100 µM and the GI50 ([5]; Homo sapiens, subpanel value, Prostate cancer) was 20.9 µM. For the same molecule, the TGI ([5]; subpanel value, Prostate cancer) was “c (Compounds showed values > 100 μM)”, the GI50 (HOP-92) was 6.3 µM and the GI50 (SR) was 6.3 µM. The GI50 (M14) was 6.3 µM, the GI50 (HS 578T) was 6.3 µM and the GI50 (OVCAR-4) was 19.9 µM. For the same molecule, the GI50 (MALME-3M) was 5.01 µM, the GI50 (SN12C) was 6.3 µM and the GI50 (UACC-62) was 1250 nM. For the same molecule, the GI50 (SF-539) was 12.6 µM, the GI50 (SK-OV-3) was 390 nM and the GI50 (SK-MEL-5) was 15.8 µM. The GI50 (SW-620) was 5.01 µM and the GI50 (MOLT-4) was 5.01 µM.
